Assay results as given in US20140357512A1, “HISTONE DEACETYLASE (HDAC) BIOMARKERS IN MULTIPLE MYELOMA” (priority 2013, published 2014).

System: human myeloma cell line MM.1S
Assay: SILAC acetylated-lysine peptide profiling, HDAC inhibitor vs DMSO (light/heavy ratio)
Format: cell-based
Source text: An embodiment of the invention comprises utilizing the SILAC method in order to quantitate changes in protein expression between two or more populations of cells. The SILAC method is a technique based on mass spectrometry that detects differences in protein abundance among samples using non-radioactive isotopic labeling. The SILAC method is known in the art, and described in detail in Ong et al., “Stable Isotope Labeling by Amino Acids in Cell Culture, SILAC, as a Simple and Accurate Approach to Expression Proteomics”, Molecular & Cellular Proteomics, vol. 1, pp. 376-386 (2002), which is incorporated herein by reference in its entirety.
Briefly, the SILAC method involves growing two populations of cells in cell culture. The first population of cells is grown in growth media containing normal amino acids (“normal media”). The second population of cells is grown in media lacking a standard essential amino acid (such as lysine), but is then supplemented with a non-radioactive, isotopically labeled form of that essential amino acid (such as lysine labeled with ^13C atoms, rather than normal ^12C atoms), which is called “heavy media”. When the two populations of cells are each growing in the medium, they incorporate the amino acids into all of their proteins. The growth of cells maintained in the heavy media is no different from that in normal media. All peptides containing the heavy amino acids are heavier than their normal counterparts. The cells from each of the two populations of cells are lysed. The lysates from each of the two cell populations are then combined. The combined cell lysates are then analyzed by mass spectrometry. Pairs of chemically identical peptides of different stable isotope composition can be differentiated in a mass spectrometer due to their difference in mass. The ratio of peak intensities in the mass spectrum for such peptide pairs reflects the abundance ratio for the two proteins.
This example describes SILAC studies that were performed to compare the effects of three different HDAC inhibitors (Compound A, Compound B, and tubastatin A) to a control on a human multiple myeloma cell line. The HDAC inhibitors were also compared amongst themselves to determine differences in their effects.
A human myeloma cell line MM.1S was grown using either ^12C (light) or ^13C (heavy) lysine containing culture medium. The “heavy” cells were treated with DMSO as the control, and the “light” cells were treated with a single HDAC inhibitor at 37° C. for 6 hours. The heavy and light cells were lysed, and the lysates were mixed in 1:1 ratio and digested with the protease trypsin. The acetylated lysine containing peptides (due to the action of the HDAC inhibitor) in the digested peptide pool were captured by a non-specific anti-acetylated lysine antibody cocktail (the antibodies identify both light and heavy acetylated peptides), and subjected to mass spectrometry analysis in order to identify thousands of individual peptides.
Thousands of peptides were identified in pairs (^12C and ^13C) due to their known mass differences. The amino acid sequence and quantitative ratio (Light/Heavy) of a given peptide in two differentially treated cell lysates were then determined and annotated with their possible protein (gene) sources.
As stated above, three HDAC inhibitors (Compound A, Compound B, and Tubastatin A) were used. Thus, the SILAC method was performed three times, with a different HDAC inhibitor compared to a control each time. Accordingly, there are three pairs of quantitative data in the table below, i.e., Compound A:DMSO, Compound B:DMSO, and Tubastatin A:DMSO. A cut-off of 1.30 fold of change (increase or decrease) was then used to determine “changed” or “+” in the table, and any peptides with a fold of change less than 1.3 fold were determined to be “unchanged” or “0” in the table. Those peptides that were not identified were marked as “NA” in the table. […]

O=C(NO)c1cnc(NC2(c3cccc(F)c3)CCCCC2)nc1 [Compound B, 2-((1-(3-fluorophenyl)cyclohexyl)amino)-N-hydroxypyrimidine-5-carboxamide]
light to heavy ratio (L/H ratio) of acetylated peptide TACAINK(ac)VLMGR (SEQ ID NO: 584) (Isoform 1 of Protein FAM98A [297], gene FAM98A, inhibitor:DMSO): 0.00 log 2
light to heavy ratio (L/H ratio) of acetylated peptide VLSK(ac)[…] (SEQ ID NO: 294) (Isoform 1 of Protein SET [154], SET, drug:DMSO): 0.00 log 2
light to heavy ratio (L/H ratio) of acetylated peptide […](ac)ALK (SEQ ID NO: 349) (Isoform 1 of RNA-binding protein with serine-rich domain 1 [218], RNPS1, drug:DMSO): −0.46 log 2
light to heavy ratio (L/H ratio), log 2 scale, acetylated peptide […](ac)TDQAQDVK (SEQ ID NO: 765) (Isoform 1 of Signal recognition particle 9 kDa protein [52], gene SRP9, drug:DMSO): 0.00
light to heavy ratio (L/H ratio) of acetylated peptide VLISFK(ac)ANDIEK (SEQ ID NO: 363) (Isoform 2 of Actin-related protein 2/3 complex subunit 5 [90], ARPC5, drug:DMSO): 0.42 log 2
light to heavy ratio (L/H ratio) of acetylated peptide TMSCSDK(ac)ILR (SEQ ID NO: 323) (Isoform 2 of Double-stranded RNA-specific adenosine deaminase [1013], ADAR, drug:DMSO): −0.65 log 2
light to heavy ratio (L/H ratio) of acetylated peptide […](ac)[…] (SEQ ID NO: 336) (Isoform 2 of Fibronectin type-III domain-containing protein 3A [507], FNDC3A, drug:DMSO): 0.40 log 2
light to heavy ratio (L/H ratio) of acetylated peptide K(ac)[…] (SEQ ID NO: 369) (Isoform 2 of Huntingtin-interacting protein K [35], C15orf63, drug:DMSO): 1.00 log 2
light to heavy ratio (L/H ratio) of acetylated peptide GAK(ac)PVVVLQK (SEQ ID NO: 611) (Isoform 2 of Nipped-B-like protein [1000], gene NIPBL, inhibitor:DMSO): 0.00 log 2
light to heavy ratio (L/H ratio) of acetylated peptide LIAGNK(ac)[…] (SEQ ID NO: 512) (Isoform 2 of Nuclear factor related to kappa-B-binding protein [1262], gene NFRKB, inhibitor:DMSO): 0.00 log 2
light to heavy ratio (L/H ratio) of acetylated peptide […](ac)K (SEQ ID NO: 626) (Isoform 2 of Septin-7 [207], gene, inhibitor:DMSO): 0.00 log 2
light to heavy ratio (L/H ratio) of acetylated peptide YQQFK(ac)DFQR (SEQ ID NO: 258) (Isoform 2 of Spliceosome RNA helicase DDX39B [349], SNORD84, DDX39B, drug:DMSO): 0.00 log 2
light to heavy ratio (L/H ratio) of acetylated peptide GLCEK(ac)PLASAAAK (SEQ ID NO: 536) (Isoform 2 of Transportin-3 [513], gene TNPO3, inhibitor:DMSO): 0.00 log 2
light to heavy ratio (L/H ratio), log 2 scale, acetylated peptide LEPLK(ac)PLK (SEQ ID NO: 772) (Isoform 3 of Proline-rich protein 12 [1223], gene PRR12, drug:DMSO): 0.00
light to heavy ratio (L/H ratio) of acetylated peptide […](ac)FLK (SEQ ID NO: 326) (Isoform 5 of Transcriptional regulator ATRX [812], ATRX, drug:DMSO): 0.89 log 2
light to heavy ratio (L/H ratio), log 2 scale, acetylated peptide YNDPIYVK(ac)LEK (SEQ ID NO: 764) (Isoform A of AP-1 complex subunit beta-1 [335], gene AP1B1, drug:DMSO): 0.00
light to heavy ratio (L/H ratio) of acetylated peptide MVAAAK(ac)YAR (SEQ ID NO: 324) (Isoform Heart of ATP synthase subunit gamma mitochondrial [55], ATP5C1, drug:DMSO): −0.80 log 2
light to heavy ratio (L/H ratio) of acetylated peptide VPNDK(ac)YYGAQTVR (SEQ ID NO: 625) (Isoform Mitochondrial of Fumarate hydratase mitochondrial [66], gene FH, inhibitor:DMSO): 0.00 log 2
light to heavy ratio (L/H ratio) of acetylated peptide MMVAGFK(ac)K (SEQ ID NO: 339) (Isoform Short of Heterogeneous nuclear ribonucleoprotein U [524], HNRNPU, drug:DMSO): −0.40 log 2
light to heavy ratio (L/H ratio) of acetylated peptide APQCLGK(ac)FIEIAAR (SEQ ID NO: 338) (Isoform Short of Heterogeneous nuclear ribonucleoprotein U [546], HNRNPU, drug:DMSO): 0.75 log 2
L/H ratio of acetylated peptide (K(ac)GPSVQKR (SEQ ID NO: 413), Isoform 1 of Protein lin-28 homolog B [240], LIN28B): 0.47 log 2
light to heavy ratio (L/H ratio) of acetylated peptide, log 2 scale (K(ac)[…] (SEQ ID NO: 152), Eukaryotic translation initiation factor 5A-2 [68], EIF5A2): 0.00
light to heavy ratio (L/H ratio) of acetylated peptide, log 2 scale (K(ac)[…] (SEQ ID NO: 164), Similar to nonhistone chromosomal protein HMG-1 [30], HMGB1P4): 0.00
light to heavy ratio (L/H ratio) of acetylated peptide, log 2 scale (K(ac)[…] (SEQ ID NO: 246), Endoplasmin [270], HSP90B1): 0.00
L/H ratio of acetylated peptide (K(ac)[…] (SEQ ID NO: 373), T-complex protein 1 subunit zeta [280], CCT6A): 0.67 log 2
L/H ratio of acetylated peptide (KDFIK(ac)TTVK (SEQ ID NO: 388), Protein DEK [367], DEK): 0.38 log 2
L/H ratio of acetylated peptide (KK(ac)FLCVTK (SEQ ID NO: 411), Kelch repeat and BTB domain-containing protein 8 [178], KBTBD8): 1.00 log 2
light to heavy ratio (L/H ratio) of acetylated peptide, log 2 scale (KLPK(ac)[…] (SEQ ID NO: 198), Ras-related protein Rab-5C [184], RAB5C): 0.00
L/H ratio of acetylated peptide (KPEENPASK(ac)FSSASK (SEQ ID NO: 391), Eukaryotic translation initiation factor 4B [586], EIF4B): 0.53 log 2
L/H ratio of acetylated peptide (KSEDTISK(ac)MNDFMR (SEQ ID NO: 409), Isoform 1 of Gamma-interferon-inducible protein 16 [451], IFI16): −0.57 log 2
light to heavy ratio (L/H ratio) of acetylated peptide, log 2 scale (KTPCGEGSK(ac)TWDR (SEQ ID NO: 245), 40S ribosomal protein S20 [75], SNORD54, RPS20): 0.00
light to heavy ratio (L/H ratio) of acetylated peptide IVADK(ac)DYSVTANSK (SEQ ID NO: 317) (L-lactate dehydrogenase B chain [82], LDHB, drug:DMSO): 0.00 log 2
L/H ratio of acetylated peptide (LCK(ac)YIYAK (SEQ ID NO: 390), Eukaryotic translation initiation factor 3 subunit C [553], EIF3C, EIF3CL): 0.45 log 2
